From publication PMC10669656, “ADMET and Solubility Analysis of New 5-Nitroisatine-Based Inhibitors of CDK2 Enzymes” (Biomedicines, 2023)
In brackets after ≈: the same amount, converted by molar mass. Several values for one entry are separate records, joined by “and”; a condition that tells them apart may be missing. Equal entries are not always repeated.

Assays:
Assay type in all cases: physicochemical
[1] = Solubility in neat solvents, shake-flask with spectrophotometric determination; conditions: for solubility at 24 h: 25 °C, organic solvent or mixture, thermodynamic from solid
Description: (§1) The calibration curves for each derivative were obtained using successful dilutions of initial stock solutions followed by spectrophotometric measurements of the obtained solutions with decreasing concentration. The concentration ranges for the derivatives 1, 2, and 3 were 0.0081–0.0405 mg/mL, 0.0077–0.0385 mg/mL, and 0.0068–0.017 mg/mL, respectively. Methanol was used both as a solvent, as well as a reference for spectrophotometric measurements. […] The A360 spectrophotometer from AOE Instruments was used for the preparation of the calibration curves. […] Three calibration curves were prepared for each derivative and then averaged.
(§2) A multi-step procedure was employed in order to find the solubility of the studied derivatives in the selected solvents. First of all, the excess amount of the considered compound was added to test tubes containing either neat solvents or their mixtures with water in different proportions, thus forming binary solvents. Saturated solutions were obtained in this way, placed in a Shaker Incubator ES-20/60 from Biosan, and incubated for 24 h at 298.1 K. The temperature adjustment was possible with a 0.1-degree accuracy, and the variance within a 24 h cycle was 0.5 degrees. The samples were simultaneously mixed at 60 rev/min. After incubation, the samples were filtered with the help of plastic syringes equipped with PTFE filters with 0.22 µm pore size. The obtained filtrates were diluted with methanol in another set of test tubes. In order to determine the mole fractions of a solute in the solution, 1 mL of the filtered samples was weighed in 10 mL volumetric flasks using a RADWAG AS 110 R2.PLUS analytical balance. The samples diluted with methanol were measured spectrophotometrically using the same instrument as was used in the case of calibration curves. The spectra were recorded in the wavelength range of 190–500 nm, and the resolution was 1 nm. Methanol was used if further dilution of the sample was required, and it was also used as a reference for calibrating the spectrophotometer. The absorbance values at 315 nm, 321 nm, and 321 nm were taken into account for derivatives 1, 2, and 3, respectively. Based on the calibration curves, the concentration of the solute in the samples was determined together with its mole fraction. Three separate measurements were conducted, and the final values are the results of averaging them.

[2] = Solubility in DMSO-water binary mixtures; conditions: for solubility at 24 h: 25 °C, thermodynamic from solid
Description: as §1, §2

[3] = Solubility in NMP-water binary mixtures; conditions: for solubility at 24 h: thermodynamic from solid
Description: as §1, §2

[4] = neat γ-nonanoic lactone, 298.1 K

O=C1Nc2ccc([N+](=O)[O-])cc2C1=NNC(=O)c1ccccc1C(F)(F)F [derivative 1, 2-trifluoromethyl-N′-[5-nitro-2-oxo-1,2-dihydro-3H-indol-3-ylidene]benzohydrazide]
solubility at 24 h ([1]; neat DMF, 298.1 K): 119 mg/mL (≈ 315 mM)
solubility at 24 h ([1]; neat DMP, 298.1 K): 0.94 mg/mL (≈ 2.49 mM)
solubility at 24 h ([1]; neat DMSO, 298.1 K): 327 mg/mL (≈ 864 mM)
solubility at 24 h ([1]; neat NMP, 298.1 K): 265 mg/mL (≈ 701 mM)
solubility at 24 h ([1]; neat acetone, 298.1 K): 4.39 mg/mL (≈ 11.6 mM)
solubility at 24 h ([1]; neat acetonitrile, 298.1 K): 2.02 mg/mL (≈ 5.34 mM)
solubility at 24 h ([1]; neat cyrene, 298.1 K): 1.62 mg/mL (≈ 4.28 mM)
solubility at 24 h ([1]; neat diglyme, 298.1 K): 2.52 mg/mL (≈ 6.66 mM)
solubility at 24 h ([1]; neat dioxane, 298.1 K): 4.17 mg/mL (≈ 11 mM)
solubility at 24 h ([1]; neat ethyl lactate, 298.1 K): 1.25 mg/mL (≈ 3.3 mM)
solubility at 24 h ([1]; neat methanol, 298.1 K): 1.51 mg/mL (≈ 3.99 mM)
solubility at 24 h ([1]; neat tetraglyme, 298.1 K): 4.62 mg/mL (≈ 12.2 mM)
solubility at 24 h ([1]; neat triglyme, 298.1 K): 0.95 mg/mL (≈ 2.51 mM)
solubility at 24 h ([1]; neat γ-heptalactone, 298.1 K): 1.78 mg/mL (≈ 4.71 mM)
solubility at 24 h [1, 4]: 1.16 mg/mL (≈ 3.07 mM)
solubility at 24 h ([1]; neat 1-butanol): 0.47 mg/mL (≈ 1.24 mM)
solubility x ([1]; neat 1-butanol, 298.1 K): 1.11 (0.04) × 10^−4 mole fraction
solubility at 24 h ([1]; neat 1-propanol): 0.61 mg/mL (≈ 1.61 mM)
solubility x ([1]; neat 1-propanol, 298.1 K): 1.19 (0.05) × 10^−4 mole fraction
solubility at 24 h ([1]; neat 4FM): 7.22 mg/mL (≈ 19.1 mM)
solubility x ([1]; neat 4FM, 298.1 K): 1.88 (0.04) × 10^−3 mole fraction
solubility x ([1]; neat DMF, 298.1 K): 2.66 × 10^−2 mole fraction and 2.66 (0.55) × 10^−2 mole fraction
solubility x ([1]; neat DMP, 298.1 K): 2.96 (0.11) × 10^−4 mole fraction
solubility x ([1]; neat DMSO, 298.1 K): 7.70 × 10^−2 mole fraction and 7.70 (0.11) × 10^−2 mole fraction
solubility x ([1]; neat NMP, 298.1 K): 8.06 × 10^−2 mole fraction and 8.06 (0.25) × 10^−2 mole fraction
solubility x ([1]; neat acetone, 298.1 K): 8.38 (0.16) × 10^−4 mole fraction
solubility x ([1]; neat acetonitrile, 298.1 K): 2.76 (0.12) × 10^−4 mole fraction
solubility x ([1]; neat cyrene, 298.1 K): 4.37 (0.09) × 10^−4 mole fraction
solubility x ([1]; neat diglyme, 298.1 K): 9.43 (0.90) × 10^−4 mole fraction
solubility x ([1]; neat dioxane, 298.1 K): 9.21 (0.21) × 10^−4 mole fraction
solubility at 24 h ([1]; neat ethanol): 0.82 mg/mL (≈ 2.17 mM)
solubility x ([1]; neat ethanol, 298.1 K): 1.26 (0.04) × 10^−4 mole fraction
solubility x ([1]; neat ethyl lactate, 298.1 K): 3.75 (0.10) × 10^−4 mole fraction
solubility x ([1]; neat methanol, 298.1 K): 1.60 (0.05) × 10^−4 mole fraction
solubility x ([1]; neat triglyme, 298.1 K): 4.48 (0.06) × 10^−4 mole fraction
solubility x ([1]; neat γ-heptalactone, 298.1 K): 5.92 (0.08) × 10^−4 mole fraction
solubility x [1, 4]: 4.81 (0.06) × 10^−4 mole fraction
solubility at 24 h ([1]; neat ε-caprolactone): 1.6 mg/mL (≈ 4.23 mM)
solubility x ([1]; neat ε-caprolactone, 298.1 K): 4.42 (0.09) × 10^−4 mole fraction
solubility at 24 h ([2]; DMSO-water binary mixture, aqueous with cosolvent or surfactant or cyclodextrin, x*DMSO 0.1, 298.1 K): 88 mg/mL (≈ 233 mM)
solubility at 24 h ([2]; DMSO-water binary mixture, aqueous with cosolvent or surfactant or cyclodextrin, x*DMSO 0.2, 298.1 K): 179 mg/mL (≈ 473 mM)
solubility at 24 h ([2]; DMSO-water binary mixture, aqueous with cosolvent or surfactant or cyclodextrin, x*DMSO 0.3, 298.1 K): 219 mg/mL (≈ 579 mM)
solubility at 24 h ([2]; DMSO-water binary mixture, aqueous with cosolvent or surfactant or cyclodextrin, x*DMSO 0.4, 298.1 K): 261 mg/mL (≈ 690 mM)
solubility at 24 h ([2]; DMSO-water binary mixture, aqueous with cosolvent or surfactant or cyclodextrin, x*DMSO 0.5, 298.1 K): 305 mg/mL (≈ 806 mM)
solubility at 24 h ([2]; DMSO-water binary mixture, aqueous with cosolvent or surfactant or cyclodextrin, x*DMSO 0.6, 298.1 K): 336 mg/mL (≈ 888 mM)
solubility at 24 h ([2]; DMSO-water binary mixture, aqueous with cosolvent or surfactant or cyclodextrin, x*DMSO 0.7, 298.1 K): 356 mg/mL (≈ 941 mM)
solubility at 24 h ([2]; DMSO-water binary mixture, aqueous with cosolvent or surfactant or cyclodextrin, x*DMSO 0.8, 298.1 K): 363 mg/mL (≈ 960 mM)
solubility at 24 h ([2]; DMSO-water binary mixture, aqueous with cosolvent or surfactant or cyclodextrin, x*DMSO 0.9, 298.1 K): 355 mg/mL (≈ 938 mM)
solubility at 24 h ([2]; DMSO-water series, organic solvent or mixture, x*DMSO 1.0, 298.1 K): 327 mg/mL (≈ 864 mM)
solubility x ([2]; x*DMSO 0.1, 298.1 K): 5.27 (0.10) × 10^−3 mole fraction
solubility x ([2]; x*DMSO 0.2, 298.1 K): 1.47 (0.02) × 10^−2 mole fraction
solubility x ([2]; x*DMSO 0.3, 298.1 K): 2.25 (0.03) × 10^−2 mole fraction
solubility x ([2]; x*DMSO 0.4, 298.1 K): 3.25 (0.05) × 10^−2 mole fraction
solubility x ([2]; x*DMSO 0.5, 298.1 K): 4.46 (0.08) × 10^−2 mole fraction
solubility x ([2]; x*DMSO 0.6, 298.1 K): 5.69 (0.15) × 10^−2 mole fraction
solubility x ([2]; x*DMSO 0.7, 298.1 K): 6.72 (0.14) × 10^−2 mole fraction
solubility x ([2]; x*DMSO 0.8, 298.1 K): 7.60 (0.10) × 10^−2 mole fraction
solubility x ([2]; x*DMSO 0.9, 298.1 K): 8.00 (0.14) × 10^−2 mole fraction
solubility x ([2]; x*DMSO 1.0, 298.1 K): 7.70 (0.11) × 10^−2 mole fraction
solubility at 24 h ([3]; NMP-water binary mixture, x*NMP 0.1, 25 °C, aqueous with cosolvent or surfactant or cyclodextrin, x*NMP 0.1, 298.1 K): 56.6 mg/mL (≈ 150 mM)
solubility at 24 h ([3]; NMP-water binary mixture, x*NMP 0.2, 25 °C, aqueous with cosolvent or surfactant or cyclodextrin, x*NMP 0.2, 298.1 K): 111 mg/mL (≈ 293 mM)
solubility at 24 h ([3]; NMP-water binary mixture, x*NMP 0.3, 25 °C, aqueous with cosolvent or surfactant or cyclodextrin, x*NMP 0.3, 298.1 K): 161 mg/mL (≈ 426 mM)
solubility at 24 h ([3]; NMP-water binary mixture, x*NMP 0.4, 25 °C, aqueous with cosolvent or surfactant or cyclodextrin, x*NMP 0.4, 298.1 K): 205 mg/mL (≈ 542 mM)
solubility at 24 h ([3]; NMP-water binary mixture, x*NMP 0.7, 25 °C, aqueous with cosolvent or surfactant or cyclodextrin, x*NMP 0.7, 298.1 K): 285 mg/mL (≈ 753 mM)
solubility at 24 h ([3]; NMP-water binary mixture, x*NMP 0.8, 25 °C, aqueous with cosolvent or surfactant or cyclodextrin, x*NMP 0.8, 298.1 K): 294 mg/mL (≈ 777 mM)
solubility at 24 h ([3]; NMP-water binary mixture, x*NMP 0.9, 25 °C, aqueous with cosolvent or surfactant or cyclodextrin, x*NMP 0.9, 298.1 K): 282 mg/mL (≈ 746 mM)
solubility at 24 h ([3]; NMP-water binary solvent, 25 °C, aqueous with cosolvent or surfactant or cyclodextrin, x*NMP 0.5, 298.1 K): 248 mg/mL (≈ 656 mM)
solubility at 24 h ([3]; NMP-water binary solvent, 25 °C, aqueous with cosolvent or surfactant or cyclodextrin, x*NMP 0.6, 298.1 K): 272 mg/mL (≈ 719 mM)
solubility at 24 h ([3]; NMP-water series, x*NMP 1.0, 25 °C, organic solvent or mixture, x*NMP 1.0, 298.1 K): 265 mg/mL (≈ 701 mM)
solubility x ([3]; x*NMP 0.1, 298.1 K): 3.86 (0.05) × 10^−3 mole fraction
solubility x ([3]; x*NMP 0.2, 298.1 K): 1.05 (0.01) × 10^−2 mole fraction
solubility x ([3]; x*NMP 0.3, 298.1 K): 1.98 (0.04) × 10^−2 mole fraction
solubility x ([3]; x*NMP 0.4, 298.1 K): 3.09 (0.04) × 10^−2 mole fraction
solubility x ([3]; x*NMP 0.6, 298.1 K): 5.77 (0.07) × 10^−2 mole fraction
solubility x ([3]; x*NMP 0.7, 298.1 K): 6.87 (0.11) × 10^−2 mole fraction
solubility x ([3]; x*NMP 0.8, 298.1 K): 7.76 (0.08) × 10^−2 mole fraction
solubility x ([3]; x*NMP 0.9, 298.1 K): 7.96 (0.10) × 10^−2 mole fraction
solubility x ([3]; x*NMP 1.0, 298.1 K): 8.06 (0.25) × 10^−2 mole fraction
